“And” between values parts separate entries of the source, which are not always exact repeats. Identical values can stand only once. Counter-ions that a name gives are not always drawn. Like-named read-outs stand apart in the source and are kept apart here. Each block holds one molecule with its values, some of them ahead of it.
What was measured:
[1] = test system: LN18 cells containing an empty vector (control, no IDH1); assay: 2-HG levels in cells by anion-exchange chromatography-MS; type: cell-based, human; design: unit not given here
IDH1 wt = molecular target: T1, IDH1 wt (Homo sapiens, UniProt O75874); assay: Steady-state kinetics, spectrophotometric NADPH absorption assay; type: biochemical
T1 construct: made in house; host or cells: E. coli BL21(DE3)plysS
Protocol: (§1) This assay was used to study steady-state kinetics and inhibition of reactions catalysed by IDH1 variants. The assay buffer was 100 mM Tris, 10 mM MgCl2, 0.2 mM dithiothreitol (DTT), 0.005%(v/v) Tween 20, and 0.1 mg mL^−1 bovine serum albumin (BSA) (pH 8.0). For inhibition assays, IDH1 variants were incubated with an inhibitor for 12 min before the reaction was initiated by substrate addition. The standard error was derived from curve fitting using GraphPad Prism v9. See figure legends for details on specific kinetic assays (Figs. 1–3; Supplementary Fig. 5; Supplementary Table 1). […]
(§2) spectrophotometric NADPH absorption assay. Conditions: 100 mM Tris, 10 mM MgCl2, 0.2 mM DTT, 0.005 %(v/v) Tween 20, and 0.1 mg/mL bovine serum albumin (BSA), pH 8.0. […] (a) Michaelis Menten […]
(§3) parameters for the oxidative decarboxylation of isocitrate. Errors: standard error of the mean (n = 3). (b) Michaelis Menten parameters for the reduction of 2-OG to 2-HG. Errors: standard error of the mean (n = 3).

IDH1 S280F = molecular target: T2, IDH1 S280F (Homo sapiens, UniProt O75874, S280F); assay: as above; type: biochemical
T2 construct: made in house; host or cells: E. coli BL21(DE3)plysS
Protocol: as §1, §2, §3

[2] = oxidative decarboxylation of isocitrate; 1 nM enzyme; read-out: KM IDH1 wt
[3] = oxidative decarboxylation of isocitrate; 1 nM enzyme; varied substrate = label
[4] = oxidative decarboxylation of isocitrate; 1 nM enzyme; read-out: KM IDH1 S280F
[5] = reduction of 2-OG to 2-HG; […] enzyme; read-out: KM IDH1 S280F
[6] = 5 µM inhibitor, 24 h, replicates

T1 sequence (O75874 whole entry): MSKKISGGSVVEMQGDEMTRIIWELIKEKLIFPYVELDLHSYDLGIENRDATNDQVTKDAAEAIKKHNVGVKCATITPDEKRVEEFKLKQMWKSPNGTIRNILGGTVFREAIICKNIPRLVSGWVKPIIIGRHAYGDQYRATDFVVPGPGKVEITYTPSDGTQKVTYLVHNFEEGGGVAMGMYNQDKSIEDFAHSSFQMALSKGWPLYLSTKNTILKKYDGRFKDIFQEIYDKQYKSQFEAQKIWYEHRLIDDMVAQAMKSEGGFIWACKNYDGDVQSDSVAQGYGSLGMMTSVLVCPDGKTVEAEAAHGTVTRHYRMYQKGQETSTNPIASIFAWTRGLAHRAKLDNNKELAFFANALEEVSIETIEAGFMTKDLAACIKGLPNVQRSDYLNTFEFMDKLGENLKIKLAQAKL
T2 sequence (O75874 whole entry S280F): as the sequence (O75874 whole entry) above, with S280F counted along it

SMILES: CC(Nc1nccc(N2C(=O)OCC2C(C)C)n1)c1ccc(CN2CCC(F)(F)CC2)cc1 (stereo not drawn) [IDH224]
2-HG levels, control (empty vector) LN18 cells [1]: 89318.1 and 81458.8 and 60558.2 and 69273.4

Km (IDH1 wt; read-out: KM IDH1 wt; reduction of 2-OG to 2-HG; […] enzyme): 792 ± 103 µM
Km (IDH1 S280F; read-out: KM IDH1 S280F; reduction of 2-OG to 2-HG; […] enzyme): 123 ± 4 µM
SMILES: O=C(O)CCC(=O)C(=O)O [2-OG, 2-oxoglutarate]

Km (IDH1 wt; [2]): 18 ± 2 µM
kcat IDH1 wt (IDH1 wt; [3]): 37 ± 1 s⁻¹
Km (IDH1 S280F; [4]): 24 ± 3 µM
kcat IDH1 S280F (IDH1 S280F; [3]): 33 ± 1 s⁻¹
Decrease of KM for IDH1 S280F compared to IDH1 wt (IDH1 S280F; reduction of 2-OG to 2-HG): 100 fold
Km (IDH1 S280F; [5]): 15 ± 4 µM
SMILES: [Cl-].[Cl-].[Mg+2] [MgCl2]

SMILES: COc1c(C)cc(NC(=O)c2nn(Cc3ccc(F)cc3)c3c2CN(C(=O)c2ccc[nH]2)C[C@]3(C)C(N)=O)cc1C [GSK864]
2-HG levels, control (empty vector) LN18 cells [1, 6]: 43585.6 and 50898.8 and 60357.4 and 48169.7

SMILES: C[C@H](Nc1ccc(C#N)n(C)c1=O)c1cc2cc(Cl)ccc2[nH]c1=O [FT-2102]
2-HG levels, control (empty vector) LN18 cells [1, 6]: 52804.5 and 64927 and 75933.5 and 34018.1

SMILES: N#Cc1ccnc(N2C(=O)CC[C@H]2C(=O)N(c2cncc(F)c2)[C@H](C(=O)NC2CC(F)(F)C2)c2ccccc2Cl)c1 [ivosidenib]
2-HG levels, control (empty vector) LN18 cells ([1]; 5 µM inhibitor, 24 h, replicates, listed as AG120): 57883 and 75917.7 and 85802.8 and 47477.2

SMILES: Cc1cn(C(=O)c2c(-c3c(Cl)cc(Cl)cc3Cl)noc2C(C)(C)F)c2cccc(/C=C/C(=O)O)c12 [DS-1001B]
2-HG levels, control (empty vector) LN18 cells [1, 6]: 51141.4 and 46980.7 and 53466.4 and 38288.1

SMILES: NC(=O)C1=CN([C@@H]2O[C@H](COP(=O)(O)OP(=O)(O)OC[C@H]3O[C@@H](n4cnc5c(N)ncnc54)[C@H](OP(=O)(O)O)[C@@H]3O)[C@@H](O)[C@H]2O)C=CC1 [NADPH]
Km (IDH1 wt; reduction of 2-OG to 2-HG; […] enzyme; read-out: KM IDH1 wt): 7 ± 2 µM
Km (IDH1 S280F; [5]): 3 ± 0.3 µM

SMILES: O=C(O)CC(C(=O)O)C(O)C(=O)O (racemic) [DL-Isocitrate, DL-isocitric acid trisodium salt]
Km (IDH1 wt; [2]): 31 ± 3 µM
Km (IDH1 S280F; [4]): 12 ± 1 µM

Km (IDH1 wt; [2]): 10.1 ± 0.7 µM
kcat IDH1 wt (IDH1 wt; [3]): 43.2 ± 0.7 s⁻¹
Km (IDH1 S280F; [4]): 7.4 ± 0.7 µM
kcat IDH1 S280F (IDH1 S280F; [3]): 31.3 ± 0.6 s⁻¹
SMILES: NC(=O)c1ccc[n+]([C@@H]2O[C@H](COP(=O)([O-])OP(=O)(O)OC[C@H]3O[C@@H](n4cnc5c(N)ncnc54)[C@H](OP(=O)(O)O)[C@@H]3O)[C@@H](O)[C@H]2O)c1 [NADP+]

From PMC9378673 (Nature Communications, 2022)
